{Fluorescein} = fluorescein label
Tested on: HeLa cells
Test: Flow cytometry of HeLa cells after introduction of fluorescein-labeled nucleic acid (cell membrane permeability)
Assay type: cell-based
Conditions: fluorescein-labeled control DNA = 1
Procedure: HeLa cells were cultured in Dulbecco's modified Eagle's medium (DMEM, manufactured by Thermo Fisher Scientific, Inc.) supplemented with 10% FBS and 0.5% penicillin/streptomycin in a humidified atmosphere (5 vol % CO2) at 37° C. Cells for image analysis were cultured in a 35 mm glass bottom dish (IWAKI, manufactured by AGC Techno Glass Co., Ltd.).
[…] On the day after seeding, the medium in each well was changed to DMEM medium (1 mL) containing a fluorescein-conjugated nucleic acid (2.5 μM) and incubated for 4 or 24 hours. Then, after washing the cell layer in the well twice with PBS, the cells were detached by treatment with 0.05% (w/v) trypsin (200 μL) at 37° C. for 5 minutes. The recovered cells were suspended in DMEM (600 μL). The cell suspension was separated by centrifugation process (400×g, 3 minutes), and PBS/1% BSA (500 μL) was added thereto. The ratio of fluorescent cells in this cell suspension and the mean fluorescence intensity were analyzed with a flow cytometer (“guava easyCyte8”, manufactured by Luminex Corporation).
After introducing a nucleic acid (fluorescein-labeled aTNA-N5[PFC8]) in which fluorescein was bound to the 3′-end of the synthesized aTNA-N5[PFC8] into HeLa cells, flow cytometry was performed, and the number of cells into which the fluorescein-labeled nucleic acid was introduced and the amount of fluorescein-labeled nucleic acid introduced into each cell were quantified based on the fluorescence intensity of fluorescein. As a control, a nucleic acid in which fluorescein was bound to the 3′-end of the control DNA (fluorescein-labeled control DNA) was also introduced into HeLa cells in the same manner and then analyzed by flow cytometry.
The fluorescein-labeled aTNA-N5[PFC8] produced in Example 1 was hybridized with a single-stranded DNA (control rDNA) composed of a base sequence (SEQ ID NO: 2) complementary to that of the control DNA to produce a fluorescein-labeled double-stranded DNA (fluorescein-labeled aTNA-N5[PFC8]/rDNA) having a repeating structure of the structure (A1) at the 5′-end and bound with fluorescein at the 3′-end. […] These fluorescein-labeled double-stranded DNAs were introduced into HeLa cells and then analyzed by flow cytometry in the same manner as in Example 1.
After respectively introducing nucleic acids (fluorescein-labeled aTNA-C2[PFC8] and fluorescein-labeled aTNA-C5[PFC8]) in which fluorescein was bound to the 3′-ends of the synthesized aTNA-C2[PFC8] and aTNA-C5[PFC8] into HeLa cells, flow cytometry was performed, and the number of cells into which the fluorescein-labeled nucleic acid was introduced and the amount of fluorescein-labeled nucleic acid introduced into each cell were quantified based on the fluorescence intensity of fluorescein. […]

Measured: Relative fluorescence intensity of cells into which fluorescein-labeled nucleic acid was introduced

Control DNA: control DNA (Seq. No. 1), natural single stranded DNA; fluorescein bound to the 3′-end (DNA TTTTTCAGTTGACCATATA; DNA, 3' {Fluorescein}, backbone and methylation of C not given here)
1.0: Example 1, single-stranded, 2.5 μM, 4 or 24 hours | Example 3, single-stranded | Example 4, single-stranded, 96-well plate, 10^4 cells per well, 2.5 μM, 4 hours | Example 6, single-stranded, 96-well plate, 10^4 cells per well, 2.0 μM, 4 hours
